Results from PubChem BioAssay (NCI).
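Each compound was tested at five concentrations against cells in 96-well plates for 48 hours. TGI marks complete inhibition of growth.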

Columns and labels:
Assay in all cases: NCI tumour cell line growth inhibition, 48 h
RXF 393 renal = test system: RXF 393 renal
OVCAR-5 ovarian = test system: OVCAR-5 ovarian
DU-145 prostate = test system: DU-145 prostate
KM12 colon = test system: KM12 colon
EKVX NSCLC = test system: EKVX NSCLC
T-47D breast = test system: T-47D breast
MCF7 breast = test system: MCF7 breast
IGROV1 ovarian = test system: IGROV1 ovarian
OVCAR-4 ovarian = test system: OVCAR-4 ovarian
M14 melanoma = test system: M14 melanoma
NCI-H23 lung = test system: NCI-H23 lung
HCT-15 colon = test system: HCT-15 colon
SK-MEL-2 melanoma = test system: SK-MEL-2 melanoma
SN12C renal = test system: SN12C renal
LOX IMVI melanoma = test system: LOX IMVI melanoma
NCI-H460 lung = test system: NCI-H460 lung
HOP-62 NSCLC = test system: HOP-62 NSCLC
SNB-19 CNS = test system: SNB-19 CNS
OVCAR-8 ovarian = test system: OVCAR-8 ovarian
786-0 renal = test system: 786-0 renal
A498 renal = test system: A498 renal
MOLT-4 leukemia = test system: MOLT-4 leukemia
OVCAR-3 ovarian = test system: OVCAR-3 ovarian
SF-295 CNS = test system: SF-295 CNS
A549 NSCLC = test system: A549 NSCLC
SK-MEL-5 melanoma = test system: SK-MEL-5 melanoma
SNB-75 CNS = test system: SNB-75 CNS
HL-60(TB) leukemia = test system: HL-60(TB) leukemia
HT29 colon = test system: HT29 colon
TK-10 renal = test system: TK-10 renal
HCC-2998 colon = test system: HCC-2998 colon
SF-268 CNS = test system: SF-268 CNS
NCI-H226 lung = test system: NCI-H226 lung
BT-549 breast = test system: BT-549 breast
SF-539 CNS = test system: SF-539 CNS
HCT-116 colon = test system: HCT-116 colon
MDA-N = test system: MDA-N
UACC-257 melanoma = test system: UACC-257 melanoma
SW-620 colon = test system: SW-620 colon
ACHN renal = test system: ACHN renal
UO-31 renal = test system: UO-31 renal
NCI/ADR-RES ovarian = test system: NCI/ADR-RES ovarian
MDA-MB-231 breast = test system: MDA-MB-231 breast
HOP-92 NSCLC = test system: HOP-92 NSCLC
COLO 205 colon = test system: COLO 205 colon
SK-MEL-28 melanoma = test system: SK-MEL-28 melanoma
SK-OV-3 ovarian = test system: SK-OV-3 ovarian
CAKI-1 renal = test system: CAKI-1 renal
MDA-MB-435 = test system: MDA-MB-435
U251 CNS = test system: U251 CNS
UACC-62 melanoma = test system: UACC-62 melanoma
RPMI-8226 leukemia = test system: RPMI-8226 leukemia
CCRF-CEM leukemia = test system: CCRF-CEM leukemia
SR leukemia = test system: SR leukemia
PC-3 prostate = test system: PC-3 prostate
HS 578T breast = test system: HS 578T breast
NCI-H522 lung = test system: NCI-H522 lung
K-562 leukemia = test system: K-562 leukemia

`CCCc1c(OC)c(=O)c2c(OC)cc(OC)c3c4c(OC)cc(OC)c5c(=O)c(OC)c(CCC)c(c1c23)c54` was tested, and the TGI (RXF 393 renal) was 69.1 µM, the TGI (OVCAR-5 ovarian) was 29 µM and the TGI (DU-145 prostate) was 24.6 µM. It also gave a TGI (KM12 colon) of 34.1 µM, a TGI (EKVX NSCLC) of 28 µM and a TGI (T-47D breast) of 20.6 µM. The TGI (MCF7 breast) was 46.6 µM, the TGI (IGROV1 ovarian) was 34.8 µM and the TGI (OVCAR-4 ovarian) was 28.4 µM. The TGI (M14 melanoma) was 30.6 µM, the TGI (NCI-H23 lung) was 29.5 µM and the TGI (HCT-15 colon) was 27.9 µM. It also gave a TGI (SK-MEL-2 melanoma) of 49.8 µM, a TGI (SN12C renal) of 50.4 µM and a TGI (LOX IMVI melanoma) of 23.1 µM. The TGI (NCI-H460 lung) was 34.5 µM, the TGI (HOP-62 NSCLC) was 33 µM and the TGI (SNB-19 CNS) was 34.6 µM. For the same molecule, the TGI (OVCAR-8 ovarian) was 40.8 µM, the TGI (786-0 renal) was 26.7 µM and the TGI (A498 renal) was 37.1 µM. For the same molecule, the TGI (MOLT-4 leukemia) was 35 µM, the TGI (OVCAR-3 ovarian) was 31.8 µM and the TGI (SF-295 CNS) was 33.1 µM. It also gave a TGI (A549 NSCLC) of 43.7 µM, a TGI (SK-MEL-5 melanoma) of 22.6 µM and a TGI (SNB-75 CNS) of 36 µM. For the same molecule, the TGI (HL-60(TB) leukemia) was 10.4 µM, the TGI (HT29 colon) was 24.1 µM and the TGI (TK-10 renal) was 36.8 µM. It also gave a TGI (HCC-2998 colon) of 38.7 µM, a TGI (SF-268 CNS) of 41.5 µM and a TGI (NCI-H226 lung) of 38.9 µM. The TGI (BT-549 breast) was 31.4 µM, the TGI (SF-539 CNS) was 30.9 µM and the TGI (HCT-116 colon) was 28 µM. For the same molecule, the TGI (MDA-N) was 32.9 µM, the TGI (UACC-257 melanoma) was 46.6 µM and the TGI (SW-620 colon) was 33.7 µM. For the same molecule, the TGI (ACHN renal) was 29.3 µM, the TGI (UO-31 renal) was 28.9 µM and the TGI (NCI/ADR-RES ovarian) was 47.4 µM. The TGI (MDA-MB-231 breast) was 18.3 µM, the TGI (HOP-92 NSCLC) was 23.4 µM and the TGI (COLO 205 colon) was 27.2 µM. For the same molecule, the TGI (SK-MEL-28 melanoma) was 26.2 µM, the TGI (SK-OV-3 ovarian) was 30.4 µM and the TGI (CAKI-1 renal) was 27.7 µM. It also gave a TGI (MDA-MB-435) of 29.6 µM, a TGI (U251 CNS) of 29.6 µM and a TGI (UACC-62 melanoma) of 24.1 µM.

With `CCCCCCOc1ccc(C(=O)NOCc2ccccc2)cc1` the TGI (RXF 393 renal) was over 100 µM, the TGI (OVCAR-5 ovarian) was over 100 µM and the TGI (DU-145 prostate) was over 100 µM. The TGI (KM12 colon) was over 100 µM, the TGI (EKVX NSCLC) was over 100 µM and the TGI (MCF7 breast) was over 100 µM. The TGI (IGROV1 ovarian) was over 100 µM, the TGI (OVCAR-4 ovarian) was over 100 µM and the TGI (M14 melanoma) was over 100 µM. For the same molecule, the TGI (NCI-H23 lung) was over 100 µM, the TGI (HCT-15 colon) was over 100 µM and the TGI (SK-MEL-2 melanoma) was over 100 µM. The TGI (RPMI-8226 leukemia) was over 100 µM, the TGI (SN12C renal) was over 100 µM and the TGI (CCRF-CEM leukemia) was over 100 µM. It also gave a TGI (LOX IMVI melanoma) of over 100 µM, a TGI (NCI-H460 lung) of over 100 µM and a TGI (HOP-62 NSCLC) of over 100 µM. It also gave a TGI (SR leukemia) of 67.4 µM, a TGI (SNB-19 CNS) of over 100 µM and a TGI (OVCAR-8 ovarian) of over 100 µM. It also gave a TGI (786-0 renal) of over 100 µM, a TGI (A498 renal) of over 100 µM and a TGI (MOLT-4 leukemia) of over 100 µM. The TGI (OVCAR-3 ovarian) was over 100 µM, the TGI (SF-295 CNS) was over 100 µM and the TGI (A549 NSCLC) was over 100 µM. The TGI (SK-MEL-5 melanoma) was over 100 µM, the TGI (SNB-75 CNS) was over 100 µM and the TGI (PC-3 prostate) was over 100 µM. It also gave a TGI (HL-60(TB) leukemia) of over 100 µM, a TGI (HS 578T breast) of over 100 µM and a TGI (HT29 colon) of over 100 µM. For the same molecule, the TGI (TK-10 renal) was over 100 µM, the TGI (HCC-2998 colon) was over 100 µM and the TGI (SF-268 CNS) was over 100 µM. The TGI (NCI-H226 lung) was over 100 µM, the TGI (BT-549 breast) was over 100 µM and the TGI (SF-539 CNS) was over 100 µM. For the same molecule, the TGI (HCT-116 colon) was over 100 µM, the TGI (MDA-N) was over 100 µM and the TGI (UACC-257 melanoma) was over 100 µM. It also gave a TGI (SW-620 colon) of over 100 µM, a TGI (ACHN renal) of over 100 µM and a TGI (UO-31 renal) of over 100 µM. For the same molecule, the TGI (NCI/ADR-RES ovarian) was over 100 µM, the TGI (MDA-MB-231 breast) was over 100 µM and the TGI (HOP-92 NSCLC) was over 100 µM. For the same molecule, the TGI (COLO 205 colon) was over 100 µM, the TGI (NCI-H522 lung) was over 100 µM and the TGI (SK-MEL-28 melanoma) was over 100 µM. It also gave a TGI (SK-OV-3 ovarian) of over 100 µM, a TGI (CAKI-1 renal) of over 100 µM and a TGI (MDA-MB-435) of over 100 µM. The TGI (U251 CNS) was over 100 µM, the TGI (UACC-62 melanoma) was over 100 µM and the TGI (K-562 leukemia) was over 100 µM.
